Legend:
Assay in all cases: Growth inhibition GI50 in vitro (CCK8/MTT, 72 h)
Type in all cases: cell-based, human
[1] = system: N87 (HER2 Amp); conditions: Homo sapiens; Table 13, 72 h; read-out: Range of GI50 N87 (HER2 Amp)
[2] = system: A549 (EGFR WT); conditions: Homo sapiens, A549; Table 13, 72 h; read-out: Range of GI50 A549 (EGFR WT)
Text: EGFR wild type cell lines: human epidermal cancer cell line A431 (EGFR WT, amplification and high expression, from Shanghai Cell Bank of Chinese Academy of Sciences and ATCC), NSCLC cell lines NCI-H460 (EGFR WT, Kras G61H and PI3KCA E545K mutants, ATCC) and NCI-H1299 (EGFR WT, ATCC), melanoma cell line A375 (EGFR WT and BRAF V600E mutant, from Shanghai Cell Bank of Chinese Academy of Sciences, ATCC), human lung cancer cell line NCI-H292 (EGFR WT, from human lung mucoepidermoid carcinoma/lymphatic metastasis, purchased from Shanghai Cell Bank of Chinese Academy of Sciences) were cultured with 1×RPMI1640 complete medium which was supplement with 10% FBS. NSCLC cell line A549 (EGFR WT and Kras G12S mutant, from Shanghai Cell Bank of Chinese Academy of Sciences) was cultured with 1×Ham'S F12K complete medium which was supplement with 10% FBS, 1% double-antibiotics and 2 mM glutamine.
(§1) The suspension cells were collected by centrifugation. The supernatant was discard and the cell pellet was resuspended and counted. Different cell concentrations (5˜10×10^4 cells/mL) were prepared according to the growth cycle of each cell line and then seeded on a 96-well plate (Corning), 100 μL/well. The cells were incubated over night at 37° C., 5% CO2. The compounds were added to the cells on the second day with 2 wells in parallel. The final concentration of organic solvent shall not exceed 1%. The cells were continually incubated for 72 h, and then subjected to MTT assay.
(§2) The present compounds and the reference compounds were dissolved with DMSO (Sigma), respectively. […] The storage concentration of compounds was 10 mM and kept at −20° C. They were diluted by 2 times or 10 times with serial dilution before using.
(§3) Dojindo CCK8 reagent kit was used as MTT assay. […] FC meter was used as microplate reader.
(§4) Adherent cell culture medium was discard and immediately replaced with fresh prepared medium which contains 10% CCK8 reagent (100 μL/well). For the suspension cells, CCK8 was directly added to 10% of the final concentration. The cells were continually incubated for 1˜4 h. When the color of control wells turned to dark yellow, the absorption value was measured at OD450 nm. The cell growth rate was calculated according to the following formula: cell growth rate (%)=100*(T−T0)/(C−T0), T=optical density of drug treatment cell well—optical density of blank control well; T0=optical density of cell well before drug treatment—optical density of blank control well; C=optical density of cell well of solvent control group—optical density of blank control well. […] The experiment was independently repeated 1˜3 times, and subject to biological statistical analysis.

[3] = system: PC-9 (EGFR dE746-A750); conditions: Homo sapiens; Table 13, 72 h; read-out: Range of GI50 PC-9 (EGFR dE746-A750)
Procedure: (§5) PC-9ER is an acquired Erlotinib resistance cell line of PC-9 cells developed by the investor. […] The four cell lines above were cultured with 1×RPMI1640 complete medium (supplement with 10% FBS). Human colon cancer cell line SW48 (EGFR G719S positive, ATCC). was cultured with L15 complete medium (10% FB S).
as §1, §2, §3, §4

[4] = system: H1975 (EGFR L858R/T790M); conditions: Homo sapiens, NCI-H1975; Table 13, 72 h; read-out: Range of GI50 H1975 (EGFR L858R/T790M)
Procedure: as §5, §1, §2, §3, §4

Row | SMILES | GI50 [1] [nM] | GI50 [2] [nM] | GI50 [3] [nM] | GI50 [4] [nM]
1 | C=CC(=O)Nc1cc(Nc2cc(Nc3ccc(OC)c(Br)c3)ncn2)c(OC)cc1N(C)CCN(C)C [Compound 224, N-(5-(6-(4-methoxyl-3-bromo-phenylamino)-pyrimidin-4-yl-amino)-2-((2-dimethylamino-ethyl)-methyl-amino)-4-methoxyl-phenyl)-acrylamide] | 10 to 100 | > 1000 | < 10 | 10 to 100
2 | C=CC(=O)Nc1cc(Nc2cc(N(C)c3cc(OC)c(Cl)cc3Cl)ncn2)c(OC)cc1N(C)CCN(C)C [Compound 249, N-(5-(6-((2,4-dichloro-5-methoxyl-phenyl)-methyl-amino)-pyrimidin-4-ylamino)-2-((2-dimethylamino-ethyl)-methyl-amino)-4-methoxyl-phenyl)-acrylamide] | < 10 | > 1000 | < 10 | 10 to 100
3 | C=CC(=O)Nc1cc(Nc2cc(Nc3ccc(OCCN4CCOCC4)c(Cl)c3)ncn2)c(OC)cc1N(C)CCN(C)C [Compound 215, N-(5-(6-(3-chloro-4-(2-morpholin-4-yl-ethoxyl)-phenylamino)-pyrimidin-4-ylamino)-2-((2-dimethylamino-ethyl)-methyl-amino)-4-methoxyphenyl)-acrylamide] | 10 to 100 | > 1000 | < 10 | 10 to 100
4 | C#Cc1cc(Nc2cc(Nc3cc(NC(=O)C=C)c(N(C)CCN(C)C)cc3OC)ncn2)ccc1OC [Compound 251, N-(5-(6-(3-acetenyl-4-methoxyl-phenylamino)-pyrimidin-4-yl-amino)-2-((2-dimethylamino-ethyl)-methyl-amino)-4-methoxyl-phenyl)-acrylamide] | < 10 | > 1000 | < 10 | < 10
5 | C=CC(=O)Nc1cc(Nc2cc(Nc3ccc(OC)c(S(=O)(=O)NC)c3)ncn2)c(OC)cc1N(C)CCN(C)C [Compound 238] | 100 to 1000 | > 1000 | 100 to 1000 | 100 to 1000
6 | C=CC(=O)Nc1cc(Nc2cc(Nc3cc(OC)c(Cl)cc3Cl)ncn2)c(OC)cc1N1CCN(C)CC1 [Compound 239, N-(5-(6-(2,4-dichloro-5-methoxyl-phenylamino)-pyrimidin-4-yl-amino)-2-(4-methyl-piperazin-1-yl)-4-methoxyl-phenyl)-acrylamide] | 10 to 100 | > 1000 | < 10 | 10 to 100
7 | C=CC(=O)Nc1cc(Nc2cc(Nc3cc(OC)c(Cl)cc3Cl)ncn2)c(OC)cc1OCCN1CCCCC1 [Compound 246] | 10 to 100 | > 1000 | 10 to 100 | 10 to 100
8 | C=CC(=O)Nc1cc(Nc2cc(Nc3cc(OC)c(Cl)cc3Cl)ncn2)c(OC)cc1N1CCC(N2CCOCC2)CC1 [Compound 240, N-(5-(6-(2,4-dichloro-5-methoxyl-phenylamino)-pyrimidin-4-yl-amino)-2-(4-(morpholin-1-yl)-piperidin-1-yl)-4-methoxyl-phenyl)-acrylamide] | < 10 | > 1000 | < 10 | 10 to 100
9 | C=CC(=O)Nc1cc(Nc2cc(Nc3ccc(OCC4(C)COC4)c(Cl)c3)ncn2)c(OC)cc1N(C)CCN(C)C [Compound 252, N-(5-(6-(3-chloro-4-(3-methyl-oxetan-3-yl-methoxyl)-phenylamino)-pyrimidin-4-yl-amino)-2-((2-dimethylamino-ethyl)-methyl-amino)-4-methoxyl-phenyl)-acrylamide] | 10 to 100 | > 1000 | 10 to 100 | 10 to 100
10 | C=CC(=O)Nc1cc(Nc2cc(Nc3cc(OC)c(Cl)cc3Cl)ncn2)c(OC)cc1OCCCN1CCN(C)CC1 [Compound 248] | < 10 | > 1000 | < 10 | 10 to 100
11 | C=CC(=O)Nc1cc(Nc2cc(Nc3cc(OC)c(Cl)cc3Cl)ncn2)c(OC)cc1OCCN1CCN(C)CC1 [Compound 247, N-(5-(6-(2,4-dichloro-5-methoxyl-phenylamino)-pyrimidin-4-yl-amino)-2-(2-(4-methyl-piperazin-1-yl)-ethoxyl)-4-methoxyl-phenyl)-acrylamide] | < 10 | > 1000 | < 10 | 10 to 100
12 | C=CC(=O)Nc1cc(Nc2cc(Nc3ccc(Cl)c(C(F)(F)F)c3)ncn2)c(OC)cc1N(C)CCN(C)C [Compound 228, N-(5-(6-(4-chloro-3-trifluoromethyl-phenylamino)-pyrimidin-4-yl-amino)-2-((2-dimethylamino-ethyl)-methyl-amino)-4-methoxyl-phenyl)-acrylamide] | 10 to 100 | > 1000 | < 10 | 10 to 100
13 | C=CC(=O)Nc1cc(Nc2cc(Nc3cc(F)c(OCCOC)c(Cl)c3)ncn2)c(OC)cc1N(C)CCN(C)C [Compound 237, N-(5-(6-(3-chloro-5-fluoro-4-(2-methoxyl-ethoxyl)-phenylamino)-pyrimidin-4-yl-amino)-2-((2-dimethylamino-ethyl)-methyl-amino)-4-methoxyl-phenyl)-acrylamide] | 10 to 100 | > 1000 | 10 to 100 | 10 to 100
14 | C=CC(=O)Nc1cc(Nc2cc(Nc3cc(OC)c(Cl)cc3Cl)ncn2)c(OC)cc1N(C)CC(=O)N1CCN(C)CC1 [Compound 241, N-(5-(6-(2,4-dichloro-5-methoxyl-phenylamino)-pyrimidin-4-yl-amino)-2-(methyl-(2-(4-methyl-piperazin-1-yl)-2-oxoethyl)-amino)-4-methoxyl-phenyl)-acrylamide] | 100 to 1000 | > 1000 | 100 to 1000 | 100 to 1000
15 | C=CC(=O)Nc1cc(Nc2cc(Nc3cc(OC)c(Cl)cc3Cl)ncn2)c(OC)cc1OCCN1CCOCC1 [Compound 243] | 10 to 100 | > 1000 | 10 to 100 | 10 to 100
16 | C=CC(=O)Nc1cc(Nc2cc(Nc3cc(OC)c(Cl)cc3Cl)ncn2)c(OC)cc1OCCN1CCCC1 [Compound 244, N-(5-(6-(2,4-dichloro-5-methoxyl-phenylamino)-pyrimidin-4-yl-amino)-2-(2-(pyrrolidin-1-yl)-ethoxyl)-4-methoxyl-phenyl)-acrylamide] | 10 to 100 | > 1000 | 10 to 100 | 10 to 100
17 | C=CC(=O)Nc1cc(Nc2ncc(Cl)c(-n3ccc4c(OC)cccc43)n2)c(OC)cc1N(C)CCN(C)C [Compound 203, N-(5-(4-(4-methoxyl-1H-indol-1-yl)-5-chloropyrimidin-2-ylamino)-2-(2-(dimethylamino-ethyl)-methyl-amino)-4-methoxyl-phenyl)-acrylamide] | < 10 | > 1000 | < 10 | < 10
18 | C=CC(=O)Nc1cc(Nc2cc(Nc3ccc(F)c(C(F)(F)F)c3)ncn2)c(OC)cc1N(C)CCN(C)C [Compound 226, N-(5-(6-(4-fluoro-3-trifluoromethyl-phenylamino)-pyrimidin-4-yl-amino)-2-((2-dimethylamino-ethyl)-methyl-amino)-4-methoxyl-phenyl)-acrylamide] | 10 to 100 | > 1000 | < 10 | 10 to 100
19 | C=CC(=O)Nc1cc(Nc2cc(Nc3ccc(OC)c(Cl)c3)ncn2)c(OC)cc1N(C)CCN1CCCC1 [Compound 225] | 10 to 100 |  | 10 to 100 | 10 to 100
